Where “and” joins values, the source holds several entries; their conditions need not be identical. Identical values can stand only once.
Legend:
[1] = target: hERG (Homo sapiens, UniProt Q12809); test: Panlab hERG assay; assay type: binding; set-up: Eurofins Panlabs
Description: Compounds A, B, C, and D were tested in Panlab assays to evaluate potential off-target activity using standard assay kits. Methods employed in these studies have been adapted from the scientific literature to maximize reliability and reproducibility. Reference standards were run as an integral part of each assay to ensure the validity of the results obtained.
Compound B was tested in a subset of 30 Panlab assays that included the hits from screening Compound F in addition to the Panlab hERG and sodium channel assay. This allows direct comparison of Compound B to Compound F in terms of off-target profile.

[2] = test system: HEL; test: Half-maximal growth inhibition (GI50), HEL; assay type: cell-based; details: Homo sapiens, 240 h, AML, erythroleukemia, JAK2V617F, read-out: GI50 (nM), day 10
Description: (§1) Compounds A, B, C, D, and F were tested against various cell lines to probe their broad utility against cancer. Cortistatin A (CA) was also tested against the cell lines in a head to head fashion.

[3] = test system: MOLM-14; test: Half-maximal growth inhibition (GI50), MOLM-14; assay type: cell-based; details: Homo sapiens, 240 h, AML, M5, MLL-AF9, read-out: GI50 (nM), day 10
Description: as §1

[4] = TurboSol solubility evaluation in physiological saline; assay type: physicochemical; details: HB-PS+0.3% DMSO
[5] = test system: SET-2 AML cell line (FLAG-CDK8 WT vs FLAG-CDK8-W105M); test: CDK8 W105M versus wild type SET-2 cell competition (flow cytometry); assay type: cell-based; details: after 3 days and 7 days of treatment
Description: Compounds A, B, C, and D inhibit SET-2 AML cell line proliferation by inhibiting CDK8. ZsGreen (Clontech) and FLAG-CDK8 WT (wild type) or mCherry (Clontech) and FLAG-CDK8-W105M were expressed in SET 2 cells. The cells were mixed, the ratio of red to green fluorescence was determined by flow cytometry, and the cells were treated with the indicated compounds. After 3 days and 7 days of treatment, the ratio of red to green fluorescent cells was determined.

[6] = test system: MV4; 11; test: Half-maximal growth inhibition (GI50), MV4; 11; assay type: cell-based; details: Homo sapiens, 240 h, AML, M5, MLL-AF4, read-out: GI50 (nM), day 10
Description: as §1

[7] = target: hERG (human ether-à-go-go-related gene) potassium channel (Homo sapiens, UniProt Q12809); test: cell-based; details: for IC50: hERG IC50, QPatch HT, room temperature
Description: (§2) The in vitro effects of compounds A, B, C, D, E, and F on the hERG (human ether-à-go-go-related gene) potassium channel current (a surrogate for IKr, the rapidly activating, delayed rectifier cardiac potassium current) expressed in mammalian cells were evaluated at room temperature using the QPatch HT (Sophion Bioscience A/S, Denmark), an automatic parallel patch clamp system. The test articles were evaluated at 1 μM, 3 μM, […] and 30 μM. Each test article concentration was tested in at least three cells. The duration of exposure to each test article concentration was a minimum of 3 minutes.

[8] = target: hERG potassium channel (Homo sapiens, UniProt Q12809); test: in vitro; details: human
Description: as §2

[9] = Pharmacokinetic profile in mice (plasma, LC-MS/MS); details: for Vd / clearance / AUC(0-inf) / Cmax / Tmax / bioavailability / concentration at 24 h: CD-1, mouse, plasma; for ½ life: CD-1 mice
Description: Formulation correction for salt content was not required for this study. Materials were vortexed and sonicated at room temperature following addition of vehicle. The solutions were maintained at ambient temperature stirring in the dark for at least 30 minutes prior to dose administration. The formulations were then vortexed and sonicated briefly to help ensure solubility.
Mice were selected from the Testing Facility's rodent colony. The animals were enrolled in the study based on acceptable health as determined by Testing Facility personnel on the day of test article administration. Animals were held in environmental acclimation for at least 48 hours (±6 hours) prior to dosing. Animals were maintained at temperatures between 16-26° C. (62-78° F.) with the humidity range between 30-70%. Animals in all groups were fasted overnight and food was returned 4 hours following dosing. Water was provided ad libitum throughout the study.
Whole blood samples for plasma were either collected from each animal by either direct vein puncture of the submandibular vein (survival blood collection) or by cardiac puncture following euthanasia with CO2 (terminal blood collection). […] Following collection, whole blood was placed into a tube containing K2EDTA and immediately placed on wet ice until processed for plasma. Whole blood samples were centrifuged at 2200×g for 10 minutes in a refrigerated centrifuge (5±3° C.) to isolate plasma. The samples were transferred to individual polypropylene containers and immediately placed on dry ice before storage at −70±10° C. until analysis. Plasma collected from undosed spare animals was pooled and analyzed as well.
Once collected the mouse plasma studies were quantitated using LCMS/MS spectroscopy to determine the concentration of compound. […] Eight calibration standards containing the analyte and internal standard imipramine were prepared and analyzed at the beginning and at the end of the sequence. A calibration curve was generated and sample concentrations calculated using the Quantitation software MassHunter.

[10] = test system: MKPL1; test: Half-maximal growth inhibition (GI50), MKPL1; assay type: cell-based; details: Homo sapiens, 240 h, AML, M7, read-out: GI50 (nM), day 10
Description: as §1

[11] = Tolerability study of Compound A and Compound D (body weight); assay type: in vivo, female NSG mice; details: for initial loss in weight: 10 mg/kg dosing group (Compound A PO, Compound D IV), recovered after dosing holiday; for tolerability: doses at or below 3 mg/kg (Compound A PO, Compound D IV)
Description: Twenty-five female NSG mice were randomly assigned to various treatment groups as described in Table 11. All mice were treated for 7 days unless as indicated below.
On study days zero to six (seven doses), Compound A was administered via oral gavage in a volume of 10 mL/kg and Compound D was administered via intravenous injection into the lateral tail vein in a volume of 10 mL/kg. Body weights were recorded daily for fifteen days (days zero to fourteen) and animal health was assessed daily.
Mice were monitored clinically for signs of morbidity and for body weights daily. Mice showing signs of morbidity were euthanized as per study guidelines.

[12] = Individual Data Points (% Inhibition), hERG

hERG, sequence (Q12809 whole entry): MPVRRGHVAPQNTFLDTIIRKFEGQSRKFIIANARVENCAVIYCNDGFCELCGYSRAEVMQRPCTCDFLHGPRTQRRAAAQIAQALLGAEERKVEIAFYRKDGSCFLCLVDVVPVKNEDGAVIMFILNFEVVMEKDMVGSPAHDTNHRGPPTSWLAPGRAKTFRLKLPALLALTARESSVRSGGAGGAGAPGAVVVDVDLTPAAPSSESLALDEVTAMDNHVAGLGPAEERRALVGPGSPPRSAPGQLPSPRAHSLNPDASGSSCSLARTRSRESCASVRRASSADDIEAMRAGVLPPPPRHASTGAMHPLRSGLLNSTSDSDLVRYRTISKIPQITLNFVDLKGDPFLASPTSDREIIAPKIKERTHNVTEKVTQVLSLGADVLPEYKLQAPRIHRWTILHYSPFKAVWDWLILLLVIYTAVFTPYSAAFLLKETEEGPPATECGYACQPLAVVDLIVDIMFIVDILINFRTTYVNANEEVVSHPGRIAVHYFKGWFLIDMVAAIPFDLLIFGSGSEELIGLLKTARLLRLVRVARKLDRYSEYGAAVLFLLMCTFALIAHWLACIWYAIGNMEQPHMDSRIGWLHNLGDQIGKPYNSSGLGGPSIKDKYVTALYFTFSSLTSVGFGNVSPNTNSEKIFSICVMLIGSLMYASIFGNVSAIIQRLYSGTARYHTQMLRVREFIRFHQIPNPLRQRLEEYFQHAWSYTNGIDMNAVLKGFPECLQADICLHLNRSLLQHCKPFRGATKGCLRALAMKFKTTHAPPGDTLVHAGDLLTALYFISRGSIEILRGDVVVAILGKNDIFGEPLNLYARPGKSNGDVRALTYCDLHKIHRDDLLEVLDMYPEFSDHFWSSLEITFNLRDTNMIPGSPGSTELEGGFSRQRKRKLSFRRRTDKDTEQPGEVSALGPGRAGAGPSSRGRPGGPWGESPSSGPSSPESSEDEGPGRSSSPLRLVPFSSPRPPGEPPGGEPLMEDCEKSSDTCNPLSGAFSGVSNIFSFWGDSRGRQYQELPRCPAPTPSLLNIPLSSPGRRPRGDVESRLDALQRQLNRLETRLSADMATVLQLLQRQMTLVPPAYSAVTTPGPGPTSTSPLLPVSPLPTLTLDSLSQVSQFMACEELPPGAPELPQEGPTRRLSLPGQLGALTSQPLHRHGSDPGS
hERG (human ether-à-go-go-related gene) potassium channel, sequence (Q12809 whole entry): as above
hERG potassium channel, sequence (Q12809 whole entry): as above

| Compound | GI50 [2] | GI50 [3] | Average LSU (×1000) ([4]; 1 μM) | Average LSU (×1000) ([4]; 3 μM) | Average LSU (×1000) ([4]; 10 μM) | Average LSU (×1000) ([4]; 30 μM) | solubility in the TurboSol assay [4] | ratio of red (CDK8 W105M) to green (wild type) fluorescent cells [5] | GI50 [6] | IC50 [7] | inhibition at 1 µM ([8]; Mean % hERG Inhibition) | inhibition at 3 µM ([8]; Mean % hERG Inhibition) | inhibition at 10 µM ([8]; Mean % hERG Inhibition) | inhibition at 30 µM ([8]; Mean % hERG Inhibition) | Vd ([9]; iv, 3 mg/kg) | clearance ([9]; iv, 3 mg/kg) | AUC(0-inf) ([9]; po, 10 mg/kg) | Cmax ([9]; po, 10 mg/kg) | Tmax ([9]; po, 10 mg/kg) | bioavailability ([9]; po, 10 mg/kg) | further results |
| --- | --- | --- | --- | --- | --- | --- | --- | --- | --- | --- | --- | --- | --- | --- | --- | --- | --- | --- | --- | --- | --- |
| C[C@]12CC=C3C=C4CC[C@@H](N5CC(N)C5)C[C@]45CC[C@]3(O5)[C@@H]1CC[C@@H]2c1ccc2ccncc2c1 [Compound C] | > 1000 nM | 21 nM | 2.8 LSU (×1000) | 3.5 LSU (×1000) | 4.9 LSU (×1000) | 13.0 LSU (×1000) | slightly insoluble at 30 μM concentrations | dose-dependently shifted the ratio of red to green cells | 2 nM | 10900 nM | 5.8% | 17.1% | 49.8% | 75.5% | 26.4 L/kg | 23.7 mL/min/kg | 2970 ng·h/mL | 462 nM | 8 h | 42.3% | inhibition at 10 µM [1]: 49%; inhibition at 3 µM [8, 12]: 12.7%; inhibition at 10 µM [8, 12]: 45.8%; inhibition at 30 µM [8, 12]: 66.9%; concentration at 24 h ([9]; po, 10 mg/kg): 82.5 nM; ½ life ([9]; IV 3 mg/kg): 14.7 h; ½ life ([9]; PO 10 mg/kg): 6.68 h; AUC(0-inf) ([9]; male, po, 5 mg/kg): 1480 ng·h/mL |
| C[C@]12CC=C3C=C4CC[C@@H](N5C[C@H](O)[C@@H](O)C5)C[C@]45CC[C@]3(O5)[C@@H]1CC[C@@H]2c1ccc2ccncc2c1 [Compound D] | > 1000 nM | 6 nM | 4.7 LSU (×1000) | 6.4 LSU (×1000) | 7.0 LSU (×1000) | 16.6 LSU (×1000) | slightly insoluble at 30 μM concentrations | dose-dependently shifted the ratio of red to green cells | 1.5 nM | 6280 nM and 6300 nM | 8% | 27.3% | 63.9% | 91.3% | 5.41 L/kg | 18 mL/min/kg | 1390 ng·h/mL | 377 nM | 2 h | 15% | inhibition at 10 µM [1]: 20%; activity in the hERG assay [7]: single digit micromolar activity; fold less hERG activity than Compound E ([7]; human): 10-100 fold; inhibition at 1 µM [8, 12]: 11.5%; inhibition at 3 µM [8, 12]: 25.1%; inhibition at 10 µM [8, 12]: 71.6%; inhibition at 30 µM [8, 12]: 97.9%; concentration at 24 h ([9]; po, 10 mg/kg): 7.6 nM; ½ life ([9]; IV 3 mg/kg): 6.60 h; ½ life ([9]; PO 10 mg/kg): 4.25 h; AUC(0-inf) ([9]; male, iv, 3 mg/kg): 2780 ng·h/mL; GI50 [10]: 1.5 nM; initial loss in weight [11]: approximately 20%; tolerability [11]: well tolerated |
| C[C@]12CC=C3C=C4CC[C@@H](N5CC[C@@H](N)C5)C[C@]45CC[C@]3(O5)[C@@H]1CC[C@@H]2c1ccc2ccncc2c1 [Compound B] | > 1000 nM | 31 nM | 2.2 LSU (×1000) | 3.2 LSU (×1000) | 4.5 LSU (×1000) | 8.6 LSU (×1000) | slightly insoluble at 30 μM concentrations | dose-dependently shifted the ratio of red to green cells | 4 nM | 10700 nM | 4.1% | 18.9% | 44.5% | 82.7% | 26.6 L/kg | 31 mL/min/kg | 1060 ng·h/mL | 218 nM | 2 h | 19.8% | inhibition at 10 µM [1]: 34%; fold less hERG activity than Compound E ([7]; human): 10-100 fold; inhibition at 1 µM [8, 12]: 5.4%; inhibition at 3 µM [8, 12]: 17.1%; inhibition at 30 µM [8, 12]: 89.4%; concentration at 24 h ([9]; po, 10 mg/kg): 26.4 nM; ½ life ([9]; IV 3 mg/kg): 18.7 h; ½ life ([9]; PO 10 mg/kg): 9.55 h; AUC(0-inf) ([9]; male, po, 10 mg/kg): 1060 ng·h/mL; GI50 [10]: 2 nM |
| C[C@]12CC=C3C=C4CC[C@@H](O)C[C@]45CC[C@]3(O5)[C@@H]1CC[C@@H]2c1ccc2ccncc2c1 [Compound A, (3S,3aR,9R,10aR,12aS,12bR)-3-(isoquinolin-7-yl)-3a-methyl-1,2,3,3a,4,7,8,9,10,11,12,12b-dodecahydro-10a,12a-epoxybenzo[4,5]cyclohepta[1,2-e]inden-9-ol] | > 1000 nM | 6 nM | 5.8 LSU (×1000) | 5.1 LSU (×1000) | 9.0 LSU (×1000) | 41.0 LSU (×1000) | slightly insoluble at concentrations of 10 μM and 30 μM | dose-dependently shifted the ratio of red to green cells | 1.5 nM | > 30000 nM | 4% | 9% | 19.6% | 43.7% | 1.12 L/kg | 18.4 mL/min/kg | 3970 ng·h/mL | 3870 nM | 0.5 h | 43.9% | Mean % hERG Inhibition ([7]; human, 3 µM): 9.2%; inhibition at 10 µM [8, 12]: 17.6%; concentration at 24 h ([9]; po, 10 mg/kg): 1.8 nM; ½ life ([9]; IV 3 mg/kg): 4.08 h; ½ life ([9]; PO 10 mg/kg): 3.04 h; AUC(0-inf) ([9]; male, po, 20 mg/kg): 7940 ng·h/mL; initial loss in weight [11]: approximately 15%; tolerability [11]: well tolerated |
